Holding throughout (type): biochemical
The target of test [1] is T1, rhVAP-1 (Homo sapiens, UniProt Q16853).
T1 construct: purchased PeproTech
T1 sequence (Q16853 27-763 limits assumed): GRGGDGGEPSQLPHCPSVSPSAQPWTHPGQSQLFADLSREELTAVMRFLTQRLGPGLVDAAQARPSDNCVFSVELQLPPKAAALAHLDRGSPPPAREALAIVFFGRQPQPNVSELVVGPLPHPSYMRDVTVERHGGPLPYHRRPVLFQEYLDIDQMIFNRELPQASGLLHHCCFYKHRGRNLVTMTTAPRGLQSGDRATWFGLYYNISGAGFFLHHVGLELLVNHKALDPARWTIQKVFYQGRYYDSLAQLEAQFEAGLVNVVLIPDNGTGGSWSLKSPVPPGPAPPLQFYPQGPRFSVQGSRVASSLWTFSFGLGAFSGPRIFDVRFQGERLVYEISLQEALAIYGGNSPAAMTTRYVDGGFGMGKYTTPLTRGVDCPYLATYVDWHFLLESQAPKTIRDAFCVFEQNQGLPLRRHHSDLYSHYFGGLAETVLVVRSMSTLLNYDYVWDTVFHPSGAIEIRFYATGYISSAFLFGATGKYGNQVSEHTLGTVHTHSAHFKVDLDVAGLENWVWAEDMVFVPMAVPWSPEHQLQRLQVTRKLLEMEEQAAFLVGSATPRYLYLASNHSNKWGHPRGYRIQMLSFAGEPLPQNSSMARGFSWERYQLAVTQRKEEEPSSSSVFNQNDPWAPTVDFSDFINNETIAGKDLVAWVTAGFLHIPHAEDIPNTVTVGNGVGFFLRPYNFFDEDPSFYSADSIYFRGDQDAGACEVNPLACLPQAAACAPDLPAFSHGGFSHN
Nature of the test: Inhibitory activity against rhVAP-1 enzyme (Biological Example 2). The conditions noted are these: Table 2; benzylamine substrate, Amplex Red/HRP. The protocol: (§1) 1. Inhibitory Activity of Compounds Against rhVAP-1 Enzyme
(§2) (1) Instrument, Consumable and Reagent
Microplate reader (Perkin Elmer, Nivo 5S), black unclear-bottom 96-well plate (Corning) and rhVAP-1 (PeproTech)
(§3) (2) Preparation of Concentration Gradient Compound Solutions
An appropriate amount of the compound to be tested was taken, dissolved in DMSO to 10 mM and then stored. Before the study, an appropriate amount of mother liquor of the 10 mM compound to be tested was taken and gradiently diluted 3-fold with DMSO, 10 concentration gradients in total. Each concentration gradient was then diluted 100-fold with 0.1 M of PBS.
(§4) (3) Preparation of Enzyme Solutions
(§5) An appropriate amount of protein diluent was added into rhVAP-1 powder, obtaining 1 mg/mL of mother liquor for storage. Before the study, PBS was used to carry out dilution to obtain enzyme solutions of 4× concentrations.
(§6) (4) Preparation of Substrate Mixtures of 2× Concentrations
(§7) An appropriate amount of benzylamine was weighed and dissolved with PBS to obtain 200 mM of benzylamine solution. The benzylamine solution was added with 2 mM of Amplex Red mother liquor and 500 U/mL of HRP mother liquor and diluted with PBS to obtain substrate mixtures of 2× concentrations.
10 μL compound solutions of different concentrations, 25 μL rhVAP-1 enzyme solutions of 4× concentrations and 15 μL of PBS were first added into a 96-well plate, shaken to be mixed uniformly and then incubated at 37° C. for 30 min. 50 μL substrate mixtures of 2× concentrations were then added into each well, and the microplate reader was immediately used to perform detection with 580 nm (20 nm) exciting light and 620 nm (10 nm) emission light for 5 min each time, 30 min in total. The inhibition rate was calculated according to the following formula: V (RFU/min)=(Ft (RFU)−F0 (RFU))/(time(min)) Inhibition rate (%)=100%−Vcmpd (RFU/min)/Vmax (RFU/min)×100%
V: fluorescence change rate; Ft: fluorescence reading at time point t; F0: initial fluorescence reading; Time: duration t; Vcmpd: fluorescence change rate of tested compound; Vmax: Max hole fluorescence change rate.
(6) Fitting of Dose-Response Curve
(§8) With the log value of concentration as the X axis and the percent inhibition rate as the Y axis, the log (inhibitor) vs. response-variable slope of analysis software GraphPad Prism 5 was used to fit a dose-response curve, thus obtaining the IC50 value of activity of each compound against the enzyme.

A further test deals with T2, MAO-A (Homo sapiens, UniProt P21397).
T2 construct: purchased Active Motif
T2 sequence (P21397 1-527): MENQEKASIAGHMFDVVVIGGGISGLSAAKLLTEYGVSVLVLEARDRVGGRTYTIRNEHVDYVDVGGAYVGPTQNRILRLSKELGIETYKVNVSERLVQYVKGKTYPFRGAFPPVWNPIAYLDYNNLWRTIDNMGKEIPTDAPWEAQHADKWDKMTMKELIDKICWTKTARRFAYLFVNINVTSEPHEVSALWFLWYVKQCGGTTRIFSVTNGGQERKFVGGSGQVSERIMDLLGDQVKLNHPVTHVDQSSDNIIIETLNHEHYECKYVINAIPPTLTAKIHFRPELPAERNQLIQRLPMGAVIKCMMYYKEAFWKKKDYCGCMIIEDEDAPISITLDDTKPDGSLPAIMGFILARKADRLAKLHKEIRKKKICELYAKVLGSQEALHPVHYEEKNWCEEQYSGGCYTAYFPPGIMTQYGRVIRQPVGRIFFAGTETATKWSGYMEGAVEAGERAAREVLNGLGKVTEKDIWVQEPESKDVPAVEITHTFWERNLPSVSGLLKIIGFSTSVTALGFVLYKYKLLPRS
Description: Selectivity against MAO-A enzyme (MAO-Glo). As for the experimental part: as §2
(§9) Microplate reader (Perkin Elmer, EnVision), 384-well plate (Perkin Elmer), centrifuge (Eppendorf), MAO-Glo™ (Promega), MAO-A (Active Motif) and MAO-B (Active Motif).
as §3
(§10) An appropriate amount of the compound to be tested was taken, dissolved in DMSO to 10 mM and then stored. The solution was then gradiently diluted 4-fold with DMSO, 6 concentration gradients in total.
as §4
(§11) MAO-A/B mother liquor was diluted with the experimental buffer for MAO-A/B to obtain enzyme solutions of 2× concentrations.
as §6
(§12) The mother liquor of MAO-A/B substrate mixture was diluted with the experimental buffer for MAO-A/B to obtain substrate mixtures of 2× concentrations.
(§13) 200 nL compound solutions or solvents of different concentrations and 10 μL MAO-A/B enzyme solutions of 2× concentrations were added into a 384-well plate, centrifuged at 1,000 rpm for 60 s, shaken to be mixed uniformly and then incubated at room temperature for 15 min. 10 μL substrate mixtures of 2× concentrations were then added into each well, and reaction was initiated. The 384-well plate was centrifuged at 1,000 rpm for 60 s, shaken for a uniform mixing and then incubated at room temperature for 60 min. 20 μL of test stop solution was added to stop reaction. Centrifugation was performed at 1,000 rpm for 60 s, and shaking was performed for uniform mixing. After 30 min of standing, the microplate reader was used to perform reading.
(§14) The inhibition rate was calculated according to the following formula: Inhibition rate (%)=(Signal_Max-Signal_sample)/(Signal_Max-Signal_min)×100 (6) Fitting of Dose-Response Curve
as §8

For the next test, the target named is T3, MAO-B (Homo sapiens, UniProt P27338).
T3 construct: purchased Active Motif
T3 sequence (P27338 1-520): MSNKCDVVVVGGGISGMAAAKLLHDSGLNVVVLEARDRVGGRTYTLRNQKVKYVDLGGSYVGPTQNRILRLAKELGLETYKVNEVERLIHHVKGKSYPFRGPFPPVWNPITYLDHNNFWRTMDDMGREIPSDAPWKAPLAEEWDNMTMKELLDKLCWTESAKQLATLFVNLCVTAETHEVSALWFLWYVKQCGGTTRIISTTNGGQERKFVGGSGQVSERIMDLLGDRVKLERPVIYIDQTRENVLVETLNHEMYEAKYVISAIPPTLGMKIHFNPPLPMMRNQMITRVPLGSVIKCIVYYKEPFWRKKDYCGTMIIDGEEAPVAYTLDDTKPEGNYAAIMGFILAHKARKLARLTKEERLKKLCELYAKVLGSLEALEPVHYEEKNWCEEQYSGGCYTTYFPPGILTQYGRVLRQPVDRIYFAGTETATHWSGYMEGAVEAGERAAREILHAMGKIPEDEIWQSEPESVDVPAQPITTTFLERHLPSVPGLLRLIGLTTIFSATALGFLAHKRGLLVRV
Description: Selectivity against MAO-B enzyme (MAO-Glo). As for the experimental part:
as §2, §9, §3, §10, §4, §11, §6, §12, §13, §14, §8

In a further test the target is T4, rhAOC1 (Homo sapiens, UniProt P19801).
T4 construct: purchased R&D
T4 sequence (P19801 20-751): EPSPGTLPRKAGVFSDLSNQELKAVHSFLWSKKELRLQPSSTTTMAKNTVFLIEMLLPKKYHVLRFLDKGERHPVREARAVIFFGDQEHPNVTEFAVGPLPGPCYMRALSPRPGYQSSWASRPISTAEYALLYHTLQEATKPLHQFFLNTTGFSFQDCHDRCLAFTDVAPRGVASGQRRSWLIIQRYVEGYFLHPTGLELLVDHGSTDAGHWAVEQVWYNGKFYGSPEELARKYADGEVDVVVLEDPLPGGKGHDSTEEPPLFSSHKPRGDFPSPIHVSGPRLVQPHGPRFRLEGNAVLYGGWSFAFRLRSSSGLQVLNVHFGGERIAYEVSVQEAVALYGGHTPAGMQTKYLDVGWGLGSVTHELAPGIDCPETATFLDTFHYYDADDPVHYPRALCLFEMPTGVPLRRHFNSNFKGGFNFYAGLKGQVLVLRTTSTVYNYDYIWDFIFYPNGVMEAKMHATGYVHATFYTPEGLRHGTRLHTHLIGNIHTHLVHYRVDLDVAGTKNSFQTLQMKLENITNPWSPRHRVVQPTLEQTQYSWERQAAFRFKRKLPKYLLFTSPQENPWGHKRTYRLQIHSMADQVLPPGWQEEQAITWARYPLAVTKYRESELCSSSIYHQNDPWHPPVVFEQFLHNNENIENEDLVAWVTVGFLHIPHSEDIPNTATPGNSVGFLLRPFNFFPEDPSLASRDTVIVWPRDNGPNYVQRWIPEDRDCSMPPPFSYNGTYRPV
Nature of the test: Selectivity against rhAOC1 enzyme (Biological Example 1). The conditions noted are these: Table 1; histamine substrate, Amplex Red/HRP. As for the experimental part: 2. Selectivity of Compounds Against rhAOC1 Enzyme
as §2
Microplate reader (Perkin Elmer, Nivo 5S), black unclear-bottom 96-well plate (Corning) and rhAOC1 (R&D)
as §3
An appropriate amount of the compound to be tested was taken, dissolved in DMSO to 10 mM and then stored. Before the study, an appropriate amount of mother liquor of the 10 mM compound to be tested was taken and gradiently diluted 3-fold with DMSO, 10 concentration gradients in total. Each concentration gradient was then diluted 10-fold with 0.1 M of PBS.
as §4
An appropriate amount of rhAOC1 mother liquor with a concentration of 0.441 mg/mL was taken and diluted with an appropriate amount of 50 mM HEPES buffer solution to obtain enzyme solutions of 4× concentrations.
as §6
An appropriate amount of histamine was weighed and dissolved with 50 mM of HEPES buffer solution to obtain 20 mM of histamine solution. The histamine solution was added with 2 mM of Amplex Red mother liquor and 500 U/mL of HRP mother liquor and diluted with 50 mM of HEPES buffer solution to obtain substrate mixtures of 2× concentrations.
10 μL compound solutions of different concentrations, 25 μL rhAOC1 enzyme solutions of 4× concentrations and 15 μL of 50 mM HEPES buffer solution were first added into a 96-well plate, shaken to be mixed uniformly and then incubated at 37° C. for 30 min. 50 μL substrate mixtures of 2× concentrations were then added into each well, and the microplate reader was immediately used to detect fluorescence intensity of each well with 580 nm (20 nm) exciting light and 620 nm (10 nm) emission light for 5 min each time, 30 min in total. […]
(§15) V: fluorescence change rate; Ft: fluorescence reading at time point t; F0: initial fluorescence reading; Time: duration t; Vcmpd: fluorescence change rate of tested compound; Vmax: Max hole fluorescence change rate. […]

Test [2] has as its target T1, rhVAP-1. Nature of the test: Inhibitory activity against rhVAP-1 enzyme (Biological Example 1). The conditions noted are these: Table 1; benzylamine substrate, Amplex Red/HRP. As for the experimental part:
as §1, §2
Multifunctional microplate reader (MD, FlexStation3), black unclear-bottom 96-well plate (Corning), and rhVAP-1 (PeproTech)
as §3
An appropriate amount of the compound to be tested was taken, dissolved in DMSO to 10 mM and then stored. Before the study, an appropriate amount of mother liquor of the 10 mM compound to be tested was diluted with DMSO, so that 1 mM solution was obtained. The solution was then gradiently diluted 3-fold with DMSO, 10 concentration gradients in total. PBS was then used to carry out 100-fold dilution, so that compound solutions of 10× series of concentrations were prepared.
as §4, §5, §6, §7
10 μL compound solutions of different concentrations, 25 μL rhVAP-1 enzyme solutions of 4× concentrations and 15 μL of PBS were first added into a 96-well plate, shaken to be mixed uniformly and then incubated at 37° C. for 30 min. 50 μL substrate mixtures of 2× concentrations were then added into each well, and the microplate reader was immediately used to detect fluorescence intensity of each well with 565 nm exciting light and 590 nm emission light for 5 min each time, 25 min in total. […]
as §15

Where a name gives a salt, the structure may show the parent alone. A value given as a limit tells only on which side of the number the result lay.

As usually defined, the IC50 is the point on the concentration scale where inhibition reaches its midpoint. A low value points to higher potency. As to `NC/C(=C\F)Cn1ncc2c(=O)n(C3CC3)ccc21` [Compound A44 hydrochloride, (E)-1-(2-(aminomethyl)-3-fluoroallyl)-5-cyclopropyl-1,5-dihydro-4H-pyrazolo[4,3-c]pyridin-4-one], the IC50 came out at 0.013 µM on rhVAP-1 [1], 77.4 µM against MAO-A and 88.9 µM on MAO-B.
As for `NC/C(=C\F)Cn1ccc2cc(C(=O)N3CCOCC3)ccc21` [Compound C1, (E)-(1-(2-(aminomethyl)-3-fluoroallyl)-1H-indol-5-yl)(morpholino)methanone], the half-maximal inhibitory concentration (IC50) against rhAOC1 worked out at 26.9 µM; against rhVAP-1 [2], 0.079 µM.
Regarding `CC(C)(C)CN1CCc2nn(C/C(=C/F)CN)cc2C1=O` [Compound A37 hydrochloride, (E)-2-(2-(aminomethyl)-3-fluoroallyl)-5-neopentyl-2,5,6,7-tetrahydro-4H-pyrazolo[4,3-c]pyridin-4-one], the IC50 was 0.008 µM at rhVAP-1 [1], above 100 µM against MAO-A and above 100 µM on MAO-B.

Source of the values: US12371432B2, “Haloallylamine compounds and application thereof” (TransThera Sciences (Nanjing), Inc., priority 2019, dated 2025).
